Results reported in US20090186868A1, “Taxane Compound Having Azetidine Ring Structure” (Daiichi Sankyo Company Limited, priority 2005, published 2009).
Values after ≈ are worked out from the molar mass of the structure shown. Like-named read-outs stand apart in the source and are kept apart here.

Legend:
B16 melanoma BL6 = experiment: Antitumor effect in mice subcutaneously transplanted with B16 melanoma BL6; assay type: in vivo, Mice (C57BL/6); details: for Therapeutic index: MTD/MED; for Effective dose range: range from MED to MTD, antitumor effect of 58% or more considered effective
Text: (§1) Mice (C57BL/6, Charles River Japan) were subcutaneously transplanted with B16 melanoma BL6 (Cancer Res., Poste, G., Fidler, I. J. et al., 1980, 40:1636; Bioorg. Med. Chem. Lett., Takeda, Y. et al., 2003, 13:185-190), or M5076 (obtained from Japanese Foundation for Cancer Research), which is a histiocytoma expressing P-gp. Four days after the transplantation in the case of B16 melanoma BL6, or 8 to 10 days after the transplantation in the case of M5076, each test compound suspended in a 0.5% aqueous solution of carboxymethylcellulose sodium, or dissolved in EtOH:Tween 80:5% glucose=5:5:90 (v/v %) was orally (po) or intravenously (iv) administered to the mice. Ten days after the administration in the case of B16 melanoma BL6, or 8 to 10 days after the administration in the case of M5076, the mice were dissected, and tumor weights were measured. The antitumor effect was calculated in accordance with the following equation.
(§2) [1−(Average tumor weight of compound administration group/average tumor weight of solvent administration group)]×100
(§3) An antitumor effect of 58% or more was considered effective (Int. J. Cancer, 1989, 43:637-44), and the maximum tolerance dose (MTD, maximum dose not causing death, mg/kg) and minimum effective dose (MED, mg/kg) showing effectiveness were obtained, respectively. The therapeutic index was calculated in accordance with the equation: MTD/MED.
(§4) ND means that the test was not performed. The effective dose range means the range of from MED to MTD.

[1] = Solubility in first and second solution for disintegration test (Japanese Pharmacopoeia); assay type: physicochemical; details: for solubility: thermodynamic from solid
Description: Solubility of each compound was determined in the first solution for disintegration test according to Japanese Pharmacopoeia (henceforth referred to as the first solution, solution obtained by adding 7 mL of hydrochloric acid and water to 2.00 g of sodium chloride to dissolve sodium chloride and fill up the solution to 1000 mL, pH 1.2) and the second solution for disintegration test according to Japanese Pharmacopoeia (henceforth referred to as the second solution, solution obtained by adding 118 mL of 0.2 mol/L solution of sodium hydroxide to 6.80 g of potassium dihydrogenphosphate, adding water to the mixture to dissolve potassium dihydrogenphosphate and filling up the solution to 1000 mL, pH 6.8).
Each test compound was dissolved in 100% dimethyl sulfoxide (DMSO) at a concentration of 10 mM, and 50 μL of the solution was lyophilized. The lyophilized test compound was added with 250 μL of the first solution or second solution, and the mixture was stored at room temperature for 12 hours or longer under light shielding, and filtered (0.7 μm). The filtrate was taken in a volume of 90 μL, and added with 50% DMSO (90 μL) to obtain a two-fold diluted solubility sample. The two-fold dilution solubility sample was taken in a volume of 20 μL, and added with 50% DMSO (180 μL) to obtain a […] diluted solubility sample. Solubility of each test sample was determined by quantifying the test compound in the resulting diluted solubility test samples using high-performance liquid chromatography.

[2] = tested on: M5076 (histiocytoma expressing P-gp); experiment: Antitumor effect in mice subcutaneously transplanted with M5076; assay type: in vivo, Mice (C57BL/6); details: for Therapeutic index: MTD/MED; for Effective dose range: range from MED to MTD, antitumor effect of 58% or more considered effective
Text: as §1, §2, §3, §4

[3] = aqueous buffer, second solution for disintegration test, pH 6.8, room temperature, 12 hours or longer, read-out: Solubility (μg/mL) pH 6.8
[4] = simulated gastric fluid, first solution for disintegration test, pH 1.2, room temperature, 12 hours or longer, read-out: Solubility (μg/mL) pH 1.2
[5] = first solution for disintegration test, pH 1.2, room temperature, 12 hours or longer
[6] = second solution for disintegration test, pH 6.8, room temperature, 12 hours or longer

SMILES	Therapeutic index (B16 melanoma BL6; B16 Melanoma BL6, iv)	solubility [1, 3]	solubility [1, 4]	Therapeutic index (B16 melanoma BL6; B16 Melanoma BL6, po)	other results
CC(=O)O[C@@]12CO[C@@H]1CC[C@@]1(C)[C@@H]3O[C@H](CN4CCC4)O[C@@H]3C3=C(C)[C@@H](OC(=O)[C@H](O)[C@@H](NC(=O)OC(C)(C)C)c4nccs4)C[C@@](O)([C@@H](OC(=O)c4ccccc4)[C@@H]12)C3(C)C [Example 40, (1S,2S,3R,4S,5R,8R,9S,10R,13S)-4-(Acetoxy)-9,10-[(1S)-2-(azetidino)ethylidenedioxy]-2-(benzoyloxy)-5,20-epoxy-1-hydroxytax-11-en-13-yl (2R,3R)-3-(tert-butoxycarbonylamino)-2-hydroxy-3-(2-thiazolyl)propionate]	4.2	150 µg/mL (≈ 170 µM)	1000 µg/mL (≈ 1130 µM)	–	–
CC(=O)O[C@@]12CO[C@@H]1CC[C@@]1(C)[C@@H]3O[C@H](CN4CC[C@H]4CO)O[C@@H]3C3=C(C)[C@@H](OC(=O)[C@H](O)[C@@H](NC(=O)OC(C)(C)C)c4ncccc4F)C[C@@](O)([C@@H](OC(=O)c4ccccc4)[C@@H]12)C3(C)C [Example 22, (1S,2S,3R,4S,5R,8R,9S,10R,13S)-4-(Acetoxy)-2-(benzoyloxy)-5,20-epoxy-1-hydroxy-9,10-{(1S)-2-[(2S)-2-hydroxymethylazetidino]ethylidenedioxy}tax-11-en-13-yl (2R,3S)-3-(tert-butoxycarbonylamino)-3-(3-fluoro-2-pyridyl)-2-hydroxypropionate]	6.0	85 µg/mL (≈ 92 µM)	1100 µg/mL (≈ 1190 µM)	4.2	Therapeutic index ([2]; M5076, iv): 2.0; Effective dose range ([2]; M5076, iv): 12.0 to 24.5 mg/kg; Therapeutic index ([2]; M5076, po): 2.0; Effective dose range ([2]; M5076, po): 17.2 to 35 mg/kg
CC[C@H](NC(=O)OC(C)(C)C)[C@@H](O)C(=O)O[C@H]1C[C@@]2(O)[C@@H](OC(=O)c3ccccc3)[C@H]3[C@@](C)(CC[C@H]4OC[C@]43OC(C)=O)[C@@H]3O[C@H](CN4CCC4)O[C@@H]3C(=C1C)C2(C)C [Example 37, (1S,2S,3R,4S,5R,8R,9S,10R,13S)-4-(Acetoxy)-9,10-[(1S)-2-(azetidino)ethylidenedioxy]-2-(benzoyloxy)-5,20-epoxy-1-hydroxy-tax-11-en-13-yl (2R,3S)-3-(tert-butoxycarbonylamino)-2-hydroxypentanoate]	4.2	–	–	2.0	Effective dose range (B16 melanoma BL6; B16 Melanoma BL6, iv): 7.21 to 30.0 mg/kg; Effective dose range (B16 melanoma BL6; B16 Melanoma BL6, po): 14.7 to 30.0 mg/kg; Therapeutic index ([2]; M5076, iv): 1.4; Effective dose range ([2]; M5076, iv): 14.7 to 21.0 mg/kg; Solubility (μg/mL) pH 1.2 [1, 5]: 670 μg/mL; Solubility (μg/mL) pH 6.8 [1, 6]: 210 μg/mL
CC(=O)O[C@@]12CO[C@@H]1CC[C@@]1(C)[C@@H]3O[C@H](CN4CC(C(=O)N(C)C)C4)O[C@@H]3C3=C(C)[C@@H](OC(=O)[C@H](O)[C@@H](NC(=O)OC(C)(C)C)c4ccccn4)C[C@@](O)([C@@H](OC(=O)c4ccccc4)[C@@H]12)C3(C)C [Example 9, (1S,2S,3R,4S,5R,8R,9S,10R,13S)-4-(Acetoxy)-2-(benzoyloxy)-9,10-{(1S)-[2-(3-dimethylcarbamoyl)azetidino]ethylidenedioxy}-5,20-epoxy-1-hydroxytax-11-en-13-yl (2R,3S)-3-(tert-butoxycarbonylamino)-2-hydroxy-3-(2-pyridyl)propionate]	–	130 µg/mL (≈ 137 µM)	1400 µg/mL (≈ 1480 µM)	6.0	–
CC(=O)O[C@@]12CO[C@@H]1CC[C@@]1(C)[C@@H]3O[C@H](CN4CC(C)(O)C4)O[C@@H]3C3=C(C)[C@@H](OC(=O)[C@H](O)[C@@H](NC(=O)OC(C)(C)C)c4ncccc4F)C[C@@](O)([C@@H](OC(=O)c4ccccc4)[C@@H]12)C3(C)C [Example 12, (1S,2S,3R,4S,5R,8R,9S,10R,13S)-4-(Acetoxy)-2-(benzoyloxy)-5,20-epoxy-1-hydroxy-9,10-[(1S)-2-(3-hydroxy-3-methylazetidino)ethylidenedioxy]tax-11-en-13-yl (2R,3S)-3-(tert-butoxycarbonylamino)-3-(3-fluoro-2-pyridyl)-2-hydroxypropionate]	–	92 µg/mL (≈ 99.6 µM)	1100 µg/mL (≈ 1190 µM)	4.1	–
CC(=O)O[C@@]12CO[C@@H]1CC[C@@]1(C)[C@@H]3O[C@H](CN4CC[C@H]4C(=O)N(C)C)O[C@@H]3C3=C(C)[C@@H](OC(=O)[C@H](O)[C@@H](NC(=O)OC(C)(C)C)c4ccccn4)C[C@@](O)([C@@H](OC(=O)c4ccccc4)[C@@H]12)C3(C)C [Example 23, (1S,2S,3R,4S,5R,8R,9S,10R,13S)-4-(Acetoxy)-2-(benzoyloxy)-9,10-{(1S)-2-[(2S)-2-(dimethylcarbamoyl)azetidino]ethylidenedioxy}-5,20-epoxy-1-hydroxytax-11-en-13-yl (2R,3S)-3-(tert-butoxycarbonylamino)-2-hydroxy-3-(2-pyridyl)propionate]	–	–	–	2.9	solubility ([1]; pH 1.2, simulated gastric fluid): 1400 µg/mL (≈ 1480 µM); solubility ([1]; pH 6.8, aqueous buffer): 360 µg/mL (≈ 380 µM)
CC(=O)O[C@@]12CO[C@@H]1CC[C@@]1(C)[C@@H]3O[C@H](CN4CC[C@H]4CO)O[C@@H]3C3=C(C)[C@@H](OC(=O)[C@H](O)[C@@H](NC(=O)OC(C)(C)C)c4ccccn4)C[C@@](O)([C@@H](OC(=O)c4ccccc4)[C@@H]12)C3(C)C [Example 21, (1S,2S,3R,4S,5R,8R,9S,10R,13S)-4-(Acetoxy)-2-(benzoyloxy)-5,20-epoxy-1-hydroxy-9,10-{(1S)-2-[(2S)-2-hydroxymethylazetidino]ethylidenedioxy}tax-11-en-13-yl (2R,3S)-3-(tert-butoxycarbonylamino)-2-hydroxy-3-(2-pyridyl)propionate]	–	150 µg/mL (≈ 166 µM)	> 1000 µg/mL	5.9	–
CC(=O)OC12COC1CCC1(C)C3OC(CN4CCC4)OC3C3=C(C)C(OC(=O)C(O)C(CF)NC(=O)OC(C)(C)C)CC(O)(C(OC(=O)c4ccccc4)C12)C3(C)C [Example 34, (1S,2S,3R,4S,5R,8R,9S,10R,13S)-4-(Acetoxy)-9,10-[(1S)-2-(azetidino)ethylidenedioxy]-2-(benzoyloxy)-5,20-epoxy-1-hydroxytax-11-en-13-yl (2R,3R)-3-(tert-butoxycarbonylamino)-4-fluoro-2-hydroxybutyrate]	4.2	–	–	–	Effective dose range (B16 melanoma BL6; B16 Melanoma BL6, iv): 10.1 to 42.0 mg/kg; Solubility (μg/mL) pH 1.2 [1, 5]: 830 μg/mL; Solubility (μg/mL) pH 6.8 [1, 6]: 310 μg/mL
CC(=O)O[C@@]12CO[C@@H]1CC[C@@]1(C)[C@@H]3O[C@H](CN4CC(S(C)(=O)=O)C4)O[C@@H]3C3=C(C)[C@@H](OC(=O)[C@H](O)[C@@H](NC(=O)OC(C)(C)C)c4ncccc4F)C[C@@](O)([C@@H](OC(=O)c4ccccc4)[C@@H]12)C3(C)C [Example 28, (1S,2S,3R,4S,5R,8R,9S,10R,13S)-4-(Acetoxy)-2-(benzoyloxy)-5,20-epoxy-1-hydroxy-9,10-{(1S)-2-[3-(methanesulfonyl)azetidino]ethylidenedioxy}tax-11-en-13-yl (2R,3S)-3-(tert-butoxycarbonylamino)-3-(3-fluoro-2-pyridyl)-2-hydroxypropionate]	–	18 µg/mL (≈ 18.5 µM)	1300 µg/mL (≈ 1340 µM)	4.2	–
